Assay results published in US10768174B2, “Attachment of proteins to interfaces for use in nonlinear optical detection” (Bluelight Therapeutics, Inc., priority 2014, dated 2020).

How the values were obtained:
calmodulin (CaM) = molecular target: T1, calmodulin (CaM) (Homo sapiens, UniProt P0DP23); assay: SHG detection of ligand-induced conformational change of labeled calmodulin tethered to Ni-NTA supported lipid bilayer; type: binding; conditions: buffer containing 1 mM CaCl2 injected; N=3
T1 construct: purchased EMD Millipore (Billerica, Mass.)
Text: MBP and CaM Proteins: To explore the ability of our SHG bilayer system to detect and measure conformational changes of a protein, we began by testing the system on CaM and MBP, two proteins previously studied by SHG [32, 33]. First, we tethered labeled CaM to the SLB surface and monitored the change in SHG intensity upon addition of the calmodulin binding peptide (CBP) in the presence or absence of calcium-containing buffers. […] When calcium is omitted from the buffer, addition of the peptide alone results in M=3.1%, (N=3, SEM±1.6) change in SHG intensity, essentially no change (FIG. 7B). […] Next, we evaluated the effect of adding calcium ions. […] Peptide was then added directly to these samples two minutes after calcium addition, producing a positive signal change of M=8.7% (N=3, SEM±0.4). As the magnitude of the SHG signal is proportional to the net, average orientation of the dye label relative to the surface normal, the different magnitudes of SHG signal change upon binding CBP and calcium to unbound CaM confirm that these ligands bind to specific and different conformations of the protein. SHG signal changes can occur in either the positive or negative direction relative to baseline depending on whether the net, average orientation of the probe moves closer to or further away from the surface normal, respectively. […]
(§1) SHG signal was monitored over several minutes after injection.

[1] = molecular target: monomeric forms of avidin or streptavidin; conditions: read-out: biotin-binding affinity of monomeric forms of avidin or streptavidin; cited from earlier work
His-tag-Ni-NTA linkage = assay: Specificity of protein attachment to bilayer: incubation with or without imidazole, SHG signal; type: binding; conditions: imidazole 350 mM (FIG. 6A legend) / 300 mM (methods)
Protocol: We began by characterizing the attachment of the proteins to our SLB surface. The SLB surface we employed has integrated immobilized metal affinity (Ni-NTA) chemistry to specifically tether the proteins to the bilayer in an oriented manner via a poly-histidine tag at the N- or C-terminus. To test the specificity of this interaction, each protein was incubated on the bilayer in the presence or absence of imidazole, a competitive inhibitor of His-tagged protein binding. […] When labeled protein is incubated in the presence of imidazole, SHG signal levels are reduced to less than 10% of the original signal or to background levels, i.e. to those of bilayer alone.

[2] = molecular target: T2, maltose binding protein (MBP) (Escherichia coli, UniProt P0AEX9); assay: SHG detection of ligand-induced conformational change of lysine-labeled MBP tethered to Ni-NTA supported lipid bilayer; parameters: purchased AtGen Co, Ltd (Seongnam-si, Gyeonggi-do, South Korea); conditions: for change in SHG intensity (M): 2 mM maltose, MBP labeled at pH 7.5, N=3; for change in SHG signal (M): 2 mM, MBP labeled at pH 8.3, N=4
Protocol: We also performed a similar set of experiments with MBP. First, we monitored the SHG intensity of MBP labeled at pH 8.3 upon addition of buffer, lactose, or maltose. […] Because the addition of both 2 mM lactose and buffer alone result in negligible changes in SHG intensity, the change in SHG intensity upon maltose addition is specific to ligand-induced conformational change upon binding.
The converse trend, preference at K88 over K15, was observed when the experimental conditions changed to pH 8.3. […] Based on inspection of the crystal structures, we hypothesized that when MBP is primarily labeled at K15 rather than K88, this could alter the directionality of SHG signal change upon ligand addition relative to the reverse case, since K15 and K88 appear to rotate towards and away from the surface normal, respectively, assuming the protein is oriented with its N-terminus facing the bilayer. […] Consistent with previous results, the addition of lactose and buffer alone had no effect.
J Am Chem Soc 136(29):10349-10360). […] (under standard kinetic condition described in ref [28].
Excess protein was removed by additional washes after incubation.
as §1

[3] = molecular target: T2, maltose binding protein (MBP); assay: Example 2 SHG kinetic reads of PyMPO-labeled His-tagged MBP tethered on 10% Ni-NTA bilayer; conditions: 10 uL injection of 2 mM solution into 10 uL well; 10% Ni-NTA tethered MBP
Protocol: Protein labeling protocol: Stock His-tagged maltose binding protein (MBP) (1 mL at nominal 0.5 mg/mL) was buffer exchanged from 20 mM Tris-HCL pH 8.0, 0.1 M NaCl, 10% Glycerol into 0.1 M Na phosphate, pH 7.5 by passing over two of the 2 mL Zeba™ Spin Desalting Columns (Thermo Scientific) equilibrated per the manufacturer's instructions. Concentration and volume of the buffer exchanged material were determined by measuring absorbance on a NanoDrop Spectrophotometer (Thermo Scientific). PyMPO-NHS was weighed out and dissolved to 2 mM in dry DMSO. PyMPO-NHS was added to the buffer exchanged MBP at 3.5:1 mole equivalents. The conjugation reaction was allowed to proceed in the dark at room temp, stirring gently, for 15 minutes. The reaction was terminated by buffer exchange back into the MBP storage buffer (20 mM Tris-HCL pH 8.0, 0.1 M NaCl, 10% Glycerol) over a fresh pair of Zeba™ Spin Desalting Columns. The resultant conjugate was centrifuged at 16K×g for 20 minutes at 4° C., and volume, concentration and degree of labeling was determined for the supernatant by measuring absorbance at 280 nm and 410 nm on the NanoDrop. […]
Scanning: The entire slide was line scanned to gather SHG data for determining the relative tethering efficiency of 3% vs 10% Ni-NTA surfaces. Well positions for 10% Ni-NTA tethered MBP were recorded and used to set up the MBP kinetic reads (3 wells total). […]

Row | SMILES | change in SHG intensity (M) [2] | change in SHG signal (M) [2] | also measured
1 | [Ca+2].[Cl-].[Cl-] [CaCl2] |  |  | change in SHG signal (M) (calmodulin (CaM)): −12.6%
2 | O=C(O)CCCC[C@@H]1SC[C@@H]2NC(=O)N[C@@H]21 [biotin] |  |  | Kd [1]: ~10 nM
3 | c1c[nH]cn1 [imidazole] |  |  | SHG signal level of labeled protein incubated in the presence of imidazole (His-tag-Ni-NTA linkage): less than 10 % of the original signal
4 | OC[C@H]1O[C@@H](O[C@H]2[C@H](O)[C@@H](O)C(O)O[C@@H]2CO)[C@H](O)[C@@H](O)[C@H]1O (some centres unmarked) [lactose] | no effect | 0.44% | 
5 | OC[C@H]1O[C@H](O[C@H]2[C@H](O)[C@@H](O)[C@H](O)O[C@@H]2CO)[C@H](O)[C@@H](O)[C@@H]1O [maltose] | 27.4% | −33.8% | SHG response (induced conformational change) of MBP [3]: only responded to addition of maltose
